In patent publication US20250051355A1, “COMPOUNDS, COMPOSITIONS, AND METHODS” (ACONCAGUA BIO, INC., priority 2023, published 2025) one finds EC50 data, which are given here for 14 molecules.

The target in experiment [1] is human calcitonin receptor (CTR) and RAMP3 (AMY3) (Homo sapiens, UniProt O60896+P30988). Nature of the experiment: Amylin Receptor cAMP Assay II. The class given is cell-based. As to conditions: COS-7/AMY3 cells, cAMP dynamic 2 kit, read-out: Amylin Receptor cAMP Stimulation Activity: EC50. In outline:
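COS-7 cells stably co-expressing human CTR and RAMP3 (AMY3) were treated with 4-fold serially diluted compounds at 2000 cells/well in HBSS with 20 mM HEPES, 0.5 mM IBMX and 0.1% casein for 30 min at 37 °C. cAMP was measured by HTRF (cAMP-d2 plus anti-cAMP cryptate, 1 h at RT) with reads at 665/615 nm.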

The target in experiment [2] is T1, human calcitonin receptor (CTR) (Homo sapiens, UniProt P30988).
T1 construct: expressed in transfected cells; host or cells: COS-7 (COS7-human CTR Clone #2)
T1 sequence (P30988 25-474): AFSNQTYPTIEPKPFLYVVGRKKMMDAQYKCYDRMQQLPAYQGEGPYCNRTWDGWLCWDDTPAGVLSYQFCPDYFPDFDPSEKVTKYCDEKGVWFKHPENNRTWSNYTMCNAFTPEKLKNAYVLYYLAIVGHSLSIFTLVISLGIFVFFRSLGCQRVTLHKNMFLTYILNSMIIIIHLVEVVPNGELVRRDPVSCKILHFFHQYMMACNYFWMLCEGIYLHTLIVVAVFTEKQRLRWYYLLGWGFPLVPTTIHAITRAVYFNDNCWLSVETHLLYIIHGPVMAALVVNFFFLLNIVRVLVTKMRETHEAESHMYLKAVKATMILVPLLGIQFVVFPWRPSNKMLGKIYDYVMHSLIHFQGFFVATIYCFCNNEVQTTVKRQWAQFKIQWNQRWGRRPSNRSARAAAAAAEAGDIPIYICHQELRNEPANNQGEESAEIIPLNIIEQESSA
As to the kind of experiment: Calcitonin receptor (CTR) cAMP Assay. The format is cell-based. The conditions noted are these: COS7-human CTR Clone #2 cells, cAMP dynamic 2 kit; read-out: Calcitonin Receptor cAMP Stimulation Activity: EC50. In outline:
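COS-7 cells stably expressing human CTR (2000 cells/well) treated with 4-fold serially diluted compounds in HBSS/20 mM HEPES/0.5 mM IBMX/0.1% casein, 30 min at 37° C. cAMP quantified by HTRF (cAMP-d2 plus anti-cAMP cryptate, 1 h RT), fluorescence read at 665 and 615 nm.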

The structures appear in SMILES notation.

Chain of human calcitonin receptor (CTR) and RAMP3 (AMY3) (O60896 24-148, one chain of several): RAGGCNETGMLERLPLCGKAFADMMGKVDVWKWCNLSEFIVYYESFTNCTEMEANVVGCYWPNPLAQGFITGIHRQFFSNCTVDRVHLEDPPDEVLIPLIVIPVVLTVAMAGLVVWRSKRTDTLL

Turning to `Cc1nnc(-c2c(CCC3CCOCC3)nc3c(c2-c2cc4ccnc(N[C@@H]5CCc6ncccc65)c4s2)C(=O)N2CCOC[C@@H]32)o1` [Compound 95, (R)-4-(7-(((R)-6,7-dihydro-5H-cyclopenta[b]pyridin-5-yl)amino)thieno[2,3-c]pyridin-2-yl)-3-(5-methyl-1,3,4-oxadiazol-2-yl)-2-(2-(tetrahydro-2H-pyran-4-yl)ethyl)-7,8,10,10a-tetrahydro-5H-pyrido[2′,3′:3,4]pyrrolo[2,1-c][1,4]oxazin-5-one], the values for the EC50 in experiment [1] and in experiment [2] were 857 nM and 35.6 nM, respectively.
The corresponding values for `Cc1nnc(-c2c(CCC3CCOCC3)nc3c(c2-c2cnc4c(ccn4Cc4ccc(C#N)c(F)c4)c2)S(=O)(=O)N2CCC[C@@H]32)o1` [Compound 126, 4-[(5-{(2S)-10-(5-methyl-1,3,4-oxadiazol-2-yl)-7,7-dioxo-11-[2-(tetrahydro-2H-pyran-4-yl)ethyl]-7λ^6-thia-6,12-diazatricyclo[6.4.0.0^2,6]dodeca-1(12),8,10-trien-9-yl}-1H-1,7-diazainden-1-yl)methyl]-2-fluorobenzonitrile] are 128 nM and 11.7 nM.
As for `Cc1nnc(-c2c(CCC3CCOCC3)nc3c(c2-c2cc4ncnc(N[C@@H]5CCc6ncccc65)c4s2)S(=O)(=O)CC3C2CC2)o1` (stereo partly drawn) [Compound 103, N—(R)-4-aza-1-indanyl(2-(3-cyclopropyl-6-(5-methyl-1,3,4-oxadiazol-2-yl)-1,1-dioxo-5-[2-(tetrahydro-2H-pyran-4-yl)ethyl]-1λ^6-thia-4-aza-7-indanyl}-1-thia-4,6-diaza-7-indenyl)amine], the values for the EC50 in experiment [1] and in experiment [2] were 1190 nM and 45.9 nM, respectively.
`Cc1noc(-c2c(CCC3CCOCC3)nc3c(c2-c2cc4ccnc(N[C@@H]5CCc6ncccc65)c4s2)S(=O)(=O)CC3C(C)C)n1` (stereo partly drawn) [Compound 102, N—(R)-4-aza-1-indanyl(2-(3-isopropyl-6-(3-methyl-1,2,4-oxadiazol-5-yl)-1,1-dioxo-5-[2-(tetrahydro-2H-pyran-4-yl)ethyl]-1λ^6-thia-4-aza-7-indanyl}-1-thia-6-aza-7-indenyl)amine]: the EC50 in experiment [1] was found to be 265 nM; in experiment [2], 50 nM.
The corresponding values for `Cc1nnc(-c2c(CCC3CCOCC3)nc3c(c2-c2cc4ccnc(N[C@@H]5CCc6ncccc65)c4s2)C(=O)N2CCC[C@@H]32)o1` [Compound 64, (S)-4-(7-(((R)-6,7-dihydro-5H-cyclopenta[b]pyridin-5-yl)amino)thieno[2,3-c]pyridin-2-yl)-3-(5-methyl-1,3,4-oxadiazol-2-yl)-2-(2-(tetrahydro-2H-pyran-4-yl)ethyl)-7,8,9,9a-tetrahydro-5H-pyrido[2,3-a]pyrrolizin-5-one] are 306 nM and 25 nM.
For `Cc1nnc(-c2c(CCC3CCOC3)nc3c(c2-c2cc4ncnc(N[C@@H]5CCc6ncccc65)c4s2)S(=O)(=O)CC3C(C)C)o1` (stereo partly drawn) [Compound 99, N—(R)-4-aza-1-indanyl(2-(3-isopropyl-6-(5-methyl-1,3,4-oxadiazol-2-yl)-1,1-dioxo-5-[2-(tetrahydro-3-furyl)ethyl]-1λ^6-thia-4-aza-7-indanyl}-1-thia-4,6-diaza-7-indenyl)amine], in that order: 1900 nM and 208 nM.
As to `Cc1nnc(-c2c(C(C)C)nc3c(c2-c2ccc4c(c2)OC(C)(C)C(=O)N4Cc2ccc(F)cn2)C(=O)N2CC4CC32C4)o1` [Compound 160, 4-[(5-fluoro-2-pyridyl)methyl]-7-[4-isopropyl-5-(5-methyl-1,3,4-oxadiazol-2-yl)-8-oxo-3,9-diazatetracyclo[9.1.1.0^1,9.0^2,7]trideca-2,4,6-trien-6-yl]-2,2-dimethyl-4H-1,4-benzoxazin-3(2H)-one], the EC50 stood at 596 nM in experiment [1] and 26.9 nM in experiment [2].
The corresponding values for `COc1cccc2c1CC[C@H]2Nc1nccc2cc(-c3c(-c4nnc(C)o4)c(CCC4CCOCC4)nc4c3S(=O)(=O)CC4C(C)C)sc12` (stereo partly drawn) [Compound 77, 3-isopropyl-7-(7-(((R)-4-methoxy-2,3-dihydro-1H-inden-1-yl)amino)thieno[2,3-c]pyridin-2-yl)-6-(5-methyl-1,3,4-oxadiazol-2-yl)-5-(2-(tetrahydro-2H-pyran-4-yl)ethyl)-2,3-dihydrothieno[3,2-b]pyridine 1,1-dioxide] are 427 nM and 6.4 nM.
Consider `Cc1cnc(-c2c(CCC34CCC(CC3)OC4)nc3c(c2-c2ccc4c(c2)OCC(=O)N4Cc2ncc(Cl)cc2F)c(=O)n2n3CCC2)o1` [Compound 156], for which the concentration giving a half-maximal response (EC50) in experiment [1] amounted to 54.7 nM; in experiment [2], 1.49 nM.
For `Cc1cnc(-c2c(CCC3CCOCC3)nc3c(c2-c2ccc4c(c2)oc(=O)n4Cc2ccc(C#N)c(F)c2)c(=O)n2n3CCC2)o1` [Compound 152, 2-fluoro-4-[(6-(10-(5-methyl-1,3-oxazol-2-yl)-7-oxo-11-[2-(tetrahydro-2H-pyran-4-yl)ethyl]-2,6,12-triazatricyclo[6.4.0.0^2,6]dodeca-1(12),8,10-trien-9-yl}-2-oxo-1,3-benzoxazol-3-yl)methyl]benzonitrile], in that order: 40.1 nM and 7.28 nM.
For `Cc1nnc(-c2c(CCC3CCOCC3)nc3c(c2-c2cc4ccnc(N[C@H](C)c5cncc(F)c5)c4s2)S(=O)(=O)CC3C(C)C)o1` (stereo partly drawn) [Compound 93, [(R)-1-(5-fluoro-3-pyridyl)ethyl](2-(3-isopropyl-6-(5-methyl-1,3,4-oxadiazol-2-yl)-1,1-dioxo-5-[2-(tetrahydro-2H-pyran-4-yl)ethyl]-1λ^6-thia-4-aza-7-indanyl}-1-thia-6-aza-7-indenyl)amine], in that order: 471 nM and 42.2 nM.
For `COc1noc(-c2c(CCC3CCOCC3)nc3c(c2-c2cc4ccnc(N[C@@H]5CCc6ncccc65)c4s2)S(=O)(=O)CC3C(C)C)n1` (stereo partly drawn) [Compound 121, N—(R)-4-aza-1-indanyl(2-(3-isopropyl-6-(3-methoxy-1,2,4-oxadiazol-5-yl)-1,1-dioxo-5-[2-(tetrahydro-2H-pyran-4-yl)ethyl]-1λ^6-thia-4-aza-7-indanyl}-1-thia-6-aza-7-indenyl)amine], in that order: 272 nM and 49.2 nM.
With `Cc1nnc(-c2c(CCc3ccc(F)cc3)nc3c(c2-c2ccc4c(c2)oc(=O)n4Cc2ccc(C#N)cn2)c(=O)n2n3CCC2)o1` [Compound 142, 6-[(6-{11-[2-(p-fluorophenyl)ethyl]-10-(5-methyl-1,3,4-oxadiazol-2-yl)-7-oxo-2,6,12-triazatricyclo[6.4.0.0^2,6]dodeca-1(12),8,10-trien-9-yl}-2-oxo-1,3-benzoxazol-3-yl)methyl]nicotinonitrile], the figures for the EC50 in experiment [1] and in experiment [2] were 58.9 nM and 1.23 nM, respectively.
The corresponding values for `Cc1nnc(-c2c(CCC3CCOCC3)nc3c(c2-c2cc4ccnc(N[C@@H]5CCc6ncccc65)c4s2)S(=O)(=O)CC3C)o1` (stereo partly drawn) [Compound 94, N—(R)-4-aza-1-indanyl(2-(3-methyl-6-(5-methyl-1,3,4-oxadiazol-2-yl)-1,1-dioxo-5-[2-(tetrahydro-2H-pyran-4-yl)ethyl]-1λ^6-thia-4-aza-7-indanyl}-1-thia-6-aza-7-indenyl)amine] are 1150 nM and 179 nM.

As a reminder, the EC50 is the concentration at which the effect is half-maximal.
